Consider 5 compounds from patent US20250032429A1, “2-FLUORODESCHLO[…] TREATMENT OF DEPRESSION, INCLUDING TREATMENT-RESISTANT DEPRESSION” (CLEARMIND MEDICINE INC., priority 2021, published 2025).

For test [1], the system named is patients with major depressive disorders. To be noted: cited from earlier work.
The nature of test [2]: Dose-response of arylcyclohexamines: intensity of experience after nasal spray, Shulgin + rating. The class given is in vivo. The settings on record: for Ketamine effect / 2-DCK effect / OPCE effect / 2-FDCK effect: nasal spray, Shulgin + scale as 1-4; for dose-response curve (shape): administered in the same way, FIG. 1, FIG. 2; for dosage effective as lower threshold: initial experimentation, logarithmic dosing. The method, then:
For safety reasons, when exploring novel psychoactives—the logarithmic scale is adopted for initial dosing to get an idea of whether or not a compound is active and if so, at what dosage ranges.
Following this initial experimentation with OPCE, 2-DCK, and 2-FDCK (Ketamine was later added to the study for reference) it was clear that dosages of 3 mg, 15 mg, and 30 mg, correspondingly, were effective as lower thresholds for further exploration. It was decided to multiply the lower threshold doses by 2, 3 & 4 to explore the effects of higher doses on the mind. Every several days a portion of one of the compounds was measured out on an Ohaus Scout balance scale and prepared for administration via nasal spray using a refillable nasal spray bottle.
The goals were to score a “+” ranking for effect and keep an open mind to look out for any other noteworthy observations. The Shulgin “+” based rating system (SHULGIN, A. T., & SHULGIN, A. (1991). Pihkal: a chemical love story. Berkeley, CA, Transform Press, page 964) for psychedelic experiences was chosen for a yearlong exploration of these various arylcylohexamines. Although the target family of molecules and the type of experience were different from the rating systems' original design, the scale's simplicity yields itself particularly well to this kind of exploration for a few reasons: • (1) The experience rendered by novel psychedelics is often ineffable.
It was therefore desirable to use the simple +, ++, +++, ++++ as 1, 2, 3, 4 to rate intensity of experience without seeking an objective measure for intensity.
When the dosages are adjusted to units that make all dose/response curves fit on the same graph then running a spline through the data points gives us curves that resemble, qualitatively, the curves appearing in FIG. 2.

The subject of test [3] is N-methyl-D-aspartate (NMDA) receptor. The settings on record: S-enantiomer compared with ketamine; cited from earlier work.
For the next test, the system named is C57BL/6N mice. Briefly: Mouse forced swim test (FST), two-day paradigm. Type of test: in vivo. To be noted: i.p. in saline 30 minutes prior to FST; day 2, final 4 minutes of 6 minute session; vs vehicle. The method, then: Male 10 week C57BL/6N mice (Taconic) are acclimated to a holding facility one week prior to testing. A two-day FST paradigm is employed, in which mice are exposed to a 10 minute test in absence of drug, and are tested the following day in presence of drug in a 6 minute test. 2-FDCK is administered intraperitoneally (i.p.) in saline vehicle 30 minutes prior to FST. All animals are drug naïve and not previously exposed to behavioral testing.
Male C57BL6N/Tac mice 10 weeks of age are housed four mice per cage under a 12:12 h light/dark cycle and are allowed to acclimate for approximately one week prior to behavioral procedures. Food and water is provided ad libitum. All procedures followed the National Institutes of Health Guide for the Care and Use of Laboratory Animals.
2-FDCK is dissolved in a saline vehicle (0.9% sodium chloride). For the 2-FDCK dose response experiment, mice receive vehicle or varying doses of 2-FDCK i.p. 30 minutes prior to behavior testing.
Mice are tested in a two day forced swim test (FST) procedure. […] On day 2, mice receive i.p. injections 30 minutes prior to being placed in a cylinder for a 6 minute session and immobility time is scored during the final 4 minutes.

Molecules are shown by their SMILES. Where a name gives a salt, the structure may show the parent alone.

Consider `CNC1(c2ccccc2Cl)CCCCC1=O` (racemic) [Ketamine], for which, in test [1], the “onset of antidepressant effect” value was “rapid antidepressant effect, acting within two hours”. Also, the Ketamine effect is on record as 1 in test [2] (dosage 28 (mg)); 1 in test [2] (dosage 31 (mg)); 1 in test [2] (dosage 32 (mg)); 2 in test [2] (dosage 55 (mg)); 2 in test [2] (dosage 58 (mg)); 2 in test [2] (dosage 59 (mg)). Also, the Ketamine effect in test [2] (dosage 62 (mg)) was found to be 2; in test [2] (dosage 89 (mg)), 3; in test [2] (dosage 90 (mg)), 4; in test [2] (dosage 92 (mg)) it was 4; in test [2] (dosage 114 (mg)), 4; in test [2] (dosage 120 (mg)), 4. For the same compound, the Ketamine effect in test [2] (dosage 122 (mg)) was found to be 4.

Regarding `CN[C@]1(c2ccccc2Cl)CCCCC1=O` [S-ketamine, (S)-2-(2-chlorophenyl)-2-(methylamino)cyclohexanone hydrochloride], the “potency or affinity for the NMDA receptor” value in test [3] is given as “higher potency or affinity for the NMDA reception”.

With `CNC1(c2ccccc2)CCCCC1=O` (centres unmarked) [2-DCK], in test [2], the “dose-response curve (shape)” value is reported as “dose-response curves that start rising sharply at low doses”. The 2-DCK effect in test [2] (dosage 15 (mg)) came to 1; in test [2] (dosage 16 (mg)), 1; in test [2] (dosage 17 (mg)), 1; in test [2] (dosage 18 (mg)), 1; in test [2] (dosage 28 (mg)), 3; in test [2] (dosage 29 (mg)), 3. Further, the 2-DCK effect in test [2] (dosage 31 (mg)) is reported as 3; in test [2] (dosage 33 (mg)), 3; in test [2] (dosage 42 (mg)) it was 4; in test [2] (dosage 43 (mg)) it was 4; in test [2] (dosage 44 (mg)), 4; in test [2] (dosage 45 (mg)) it was 4. Also, the 2-DCK effect in test [2] (dosage 46 (mg)), in test [2] (dosage 57 (mg)), in test [2] (dosage 58 (mg)), in test [2] (dosage 61 (mg)) and in test [2] (dosage 62 (mg)) was 4 in each case. For the same compound, the “dosage effective as lower threshold” value in test [2] was 15 mg.

Take `CCNC1(c2ccccc2)CCCCC1=O` (centres unmarked) [OPCE]: the “dose-response curve (shape)” value in test [2] is “dose-response curves that start rising sharply at low doses”. Also, the OPCE effect was 1 in test [2] (dosage 3 (mg)); 1 in test [2] (dosage 4 (mg)); 1 in test [2] (dosage 6 (mg)); 2 in test [2] (dosage 9 (mg)); 4 in test [2] (dosage 11 (mg)); 4 in test [2] (dosage 12 (mg)). The “dosage effective as lower threshold” value in test [2] came out at 3 mg.

On to `CNC1(c2ccccc2F)CCCCC1=O` (centres unmarked) [2-FDCK, 2-(2-fluorophenyl)-2-(methylamino)cyclohexan-1-one], for which the immobility time result in the test with C57BL/6N mice is given as “shorter immobility times relative to mice receiving vehicle alone”. Also, the “dose-response curve (shape)” value in test [2] is recorded as “flatter than the dose-response curve for Ketamine”. Moreover, the 2-FDCK effect in test [2] (dosage 28 (mg)), in test [2] (dosage 29 (mg)), in test [2] (dosage 30 (mg)), in test [2] (dosage 31 (mg)), in test [2] (dosage 32 (mg)) and in test [2] (dosage 33 (mg)) was 1 each time. Also, the 2-FDCK effect in test [2] (dosage 35 (mg)) was determined as 1; in test [2] (dosage 55 (mg)), 2; in test [2] (dosage 57 (mg)), 2; in test [2] (dosage 58 (mg)), 2; in test [2] (dosage 61 (mg)) it was 2; in test [2] (dosage 62 (mg)) it was 2. Also, the 2-FDCK effect stood at 3 in test [2] (dosage 88 (mg)); 3 in test [2] (dosage 90 (mg)); 3 in test [2] (dosage 91 (mg)); 4 in test [2] (dosage 114 (mg)); 4 in test [2] (dosage 116 (mg)); 4 in test [2] (dosage 122 (mg)). In addition, the 2-FDCK effect in test [2] (dosage 124 (mg)) is on record as 4. Further, in test [2] (in treating patients with depression, specifically TRD), the “dose response curve (shape) compared to S-ketamine” value is reported as “flatter dose response curve compared to S-ketamine”. In addition, the “dosage effective as lower threshold” value in test [2] was 30 mg.
